In general, Kd refers to a measure of binding affinity in units of concentration.

Experimental findings from publication PMC4821612, “Multispecific Organic Cation Transporter 1 (OCT1) from Bos taurus Has High Affinity and Slow Binding Kinetics towards Prostaglandin E2” (PLoS ONE, 2016) are described below.

The target of test [1] is T1, Organic cation transporter 1 (btOCT1) (Bos taurus, UniProt A7MBE0, N107Q/N71Q/N91Q).
T1 construct: gene SLC22A1; purified tag-free btOCT1 triple N-glycosylation mutant (NP_001094568.1), expressed in Pichia pastoris
T1 sequence (A7MBE0 1-563 N71Q/N91Q/N107Q): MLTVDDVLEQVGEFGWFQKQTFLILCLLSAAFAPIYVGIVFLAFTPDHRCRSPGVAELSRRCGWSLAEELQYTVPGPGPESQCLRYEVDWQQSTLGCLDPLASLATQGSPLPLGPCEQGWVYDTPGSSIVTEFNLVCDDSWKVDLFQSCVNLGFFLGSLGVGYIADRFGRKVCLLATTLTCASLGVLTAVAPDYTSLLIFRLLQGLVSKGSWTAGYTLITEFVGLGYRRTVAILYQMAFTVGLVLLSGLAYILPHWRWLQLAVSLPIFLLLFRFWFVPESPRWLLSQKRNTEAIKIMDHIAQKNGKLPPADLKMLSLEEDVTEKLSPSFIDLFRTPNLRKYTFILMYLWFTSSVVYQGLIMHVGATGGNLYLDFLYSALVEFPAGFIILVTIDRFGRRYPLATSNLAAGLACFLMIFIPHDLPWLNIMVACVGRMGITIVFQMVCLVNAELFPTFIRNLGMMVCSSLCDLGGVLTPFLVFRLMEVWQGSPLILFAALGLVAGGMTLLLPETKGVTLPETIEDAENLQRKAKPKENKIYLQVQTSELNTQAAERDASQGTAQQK
Briefly: SPR kinetics, purified btOCT1 over streptavidin-immobilised PGE2-PEG11-Biotin (PEG11-Biotin control); steady-state k […]. The test is classed as binding.

Test [2] has as its target T2, Organic cation transporter 1 (btOCT1) (Bos taurus, UniProt A7MBE0, N71Q/N91Q/N107Q).
T2 construct: gene SLC22A1; purified tag-free btOCT1 triple N-glycosylation mutant (NP_001094568.1), expressed in Pichia pastoris
T2 sequence (A7MBE0 1-563 N71Q/N91Q/N107Q): T1 sequence (A7MBE0 1-563 N71Q/N91Q/N107Q)
The test is described as follows: fluorescence polarization with purified btOCT1; rhodamine […] alone does not bind. Type of test: binding.

On to `CCCCC[C@H](O)/C=C/[C@H]1[C@H](O)CC(=O)[C@@H]1C/C=C\CCCC(=O)O` [Prostaglandin E2], for which, in test [1], the Kd is around 100 nM.
As to PGE2-Rhodamine, binding in test [2] was put at a Kd of 540 nM. This counts as sub-micromolar.
